Measured values from paper PMC12549899 (Nature Communications, 2025).
Several values for one entry are separate records, joined by “and”; a condition that tells them apart may be missing. Equal values may be shown once.

Biological target: T1, DrOTOP1 G130W (Danio rerio, UniProt Q7ZWK8, G130W)
T1 construct: A previously generated codon-optimized full-length DrOTOP1[8]; (UniProt: Q7ZWK8) construct; expressed in transfected cells; host or cells: HEK-293 (CRL-1573, ATCC)
T1 sequence (Q7ZWK8 1-586 G130W): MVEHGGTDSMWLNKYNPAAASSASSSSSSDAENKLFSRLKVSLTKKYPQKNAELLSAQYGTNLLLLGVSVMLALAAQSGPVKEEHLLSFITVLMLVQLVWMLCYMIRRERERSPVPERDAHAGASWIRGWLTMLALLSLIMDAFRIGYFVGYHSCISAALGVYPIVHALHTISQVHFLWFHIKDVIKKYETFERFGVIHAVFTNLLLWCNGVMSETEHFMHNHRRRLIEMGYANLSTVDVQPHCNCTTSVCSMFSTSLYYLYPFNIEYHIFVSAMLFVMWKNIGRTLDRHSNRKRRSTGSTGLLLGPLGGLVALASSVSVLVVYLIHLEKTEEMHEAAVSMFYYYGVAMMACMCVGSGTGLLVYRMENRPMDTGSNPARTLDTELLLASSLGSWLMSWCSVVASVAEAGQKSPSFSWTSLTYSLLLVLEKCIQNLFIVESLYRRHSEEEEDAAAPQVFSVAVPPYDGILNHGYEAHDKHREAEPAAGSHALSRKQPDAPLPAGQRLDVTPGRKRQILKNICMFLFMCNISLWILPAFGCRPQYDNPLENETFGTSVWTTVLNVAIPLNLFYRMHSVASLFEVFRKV
Test: Whole-cell patch-clamp, inhibition of acid-evoked currents, DrOTOP1 G130W (outer site)
Format: cell-based, zebrafish (Danio rerio)
Excerpt: To functionally test the significance of the two binding sites identified by cryo-EM, we generated point mutations of DrOTOP1 using the binding poses and conformational changes observed in DrOTOP1_C2.2 to guide our mutations. As per the binding pose that best fits our cryo-EM density, C2.2 forms the following interactions in the outer site: hydrophobic packing against many non-polar residues W126, G130, M133, L134, F271, F570, and M573, and π-stacking with W532 (Fig. 5A). In addition, C2.2 could potentially form H-bonds with E267, if the sidechain is protonated or a water bridge is present, and with H574 if it moves closer (Fig. 5A). Likewise, C2.36 presents a heterocyclic nitrogen that can potentially form a H-bond with E267, similarly, provided a protonation or water bridge is present (Fig. 5B). In addition, C2.36 forms a T-shaped π-stacking interaction with H574, whose sidechain has rotated 90 degrees (compared to DrOTOP1_apo), presumably to accommodate the interaction (Fig. 5B). Considering other inhibitors discovered from the second round of screening, many contain functional groups like the carbonyl groups of Group 1 molecules and the heterocyclic nitrogen atoms of Group 2 molecules (Supplementary Fig. 3E), that can potentially form similar H-bonds with E267 as C2.2 and C2.36, assuming the binding modes are similar. In the central site, C2.2 binds with the following interactions: hydrophobic packing with residues V201, F271, A274, V278, and A388, π-stacking with F277, and H-bonding with E384 (Fig. 5C).
Each non-aromatic residue was mutated to tryptophan, which was expected to cause steric occlusion. […] This seemed appropriate given the small number of H-bonds in these pockets, the ambiguity of how the inhibitors fit the density, and the prevalence of hydrophobic packing interactions (Fig. 5A–C).
HEK-293 cells (CRL-1573, ATCC) were cultured in DMEM (Thermofisher 11995073) containing 10% fetal bovine serum (Life Technology 16000044) and Penicillin-Streptomycin (100 I.U./mL) and (100 µg/mL), respectively. Cells were transfected with WT DrOTOP1 or mutant DrOTOP1 channels in 35 mm petri dishes, with ~ 500 ng DNA and 2 μL TransIT-LT1 transfection reagent (Mirus Bio Corporation, Cat # MIR2300) following the manufacturer’s protocol. All constructs were subcloned into a pcDNA3.1 vector that adds an N-terminal fusion tag consisting of an octahistidine tag followed by eGFP, a Gly-Thr-Gly-Thr linker and a 3C protease cleavage site ([…]) followed by WT DrOTOP1, WT mOTOP1, WT hOTOP1, or mutated DrOTOP1. Point mutations were generated via In-Fusion Cloning (Takara) using single-stranded DNA primers generated through IDT and sequence confirmed by Sanger sequencing (GeneWiz).
Whole-cell patch-clamp recording was performed as previously described[6],[22],[25]. Recordings were made with an Axopatch 200B amplifier, digitized with a Digidata 1322a 16-bit data acquisition system, acquired with pClamp 8.2 and analyzed with Clampfit 10 (Molecular Devices). Recordings were sampled at 5 kHz and filtered at 1 kHz. Patch Pipettes with resistance of […] were fabricated from borosilicate glass, and only recordings with a giga-Ohm seal were used in analysis. Membrane potential was held at −80 mV for the duration of recordings. At the beginning of recordings and between, cells were washed with Tyrode’s solution (see below). Once a giga-Ohm seal was reached, cells were lifted and placed in front of microcapillary tubes controlled by a Fast-Step perfusion system (Warner Instruments) so that extracellular solutions could be rapidly exchanged during each experiment.
Standard Tyrode’s solution consisted of 145 mM NaCl, 5 mM KCl, MgCl2, 2 mM CaCl2, 20 mM D-Glucose, and 10 mM HEPES (for pH 7.4). All other extracellular patch-clamp solutions contained 160 mM NMDG-Cl, 2 mM CaCl2, and the following buffers: 10 mM HEPES (for pH 7.4), 10 mM MES (for pH 6.5-5.5), 10 mM CHES for pH 10, and 10 mM HomoPIPES for (pH 5.0). pH adjusted with HCl. […]

C=C(C)COc1ccccc1NC(=O)c1nc[nH]c1C [C2.2]
inhibition at 30 µM (30 µM, DrOTOP1 G130W, single cells): 15.3% | inhibition at 100 µM (DrOTOP1 G130W, single cells): 42.4% | Hill coefficient (DrOTOP1 G130W): 1.123 | IC50 (DrOTOP1 G130W, pH 5.5): 130 µM and 138 µM | Mean, Fig 5N (G130W + C2.2, n=5): 15.24 | Disruption of inhibitory activity by site-directed mutagenesis of outer site residues (outer site mutants compared with WT): ≤ 20 fold

O=C(/C(=N\O)c1ccccc1)c1ccccc1 [C11, benzil monoxime]
inhibition at 100 µM (DrOTOP1 G130W, single cells): 62.7%
